According to patent US4281121A, “1,3,4-Thiadiazole-2-carboxylic acid derivatives, process for making the same and fungicidal and nematocidal compositions containing same” (Schering Aktiengesellschaft, priority 1978, dated 1981):
Where two headings read alike, the source gives them in different places.

Assays:
[1] = tested on: Tilletia caries; experiment: Treatment of oat seeds infested with Tilletia caries (spore germination); type: in vivo
[2] = tested on: Helminthosporium gram; conditions: about 5 weeks
Procedure: Treatment of barley seeds infested with Helminthosporium gram
After emergence, the plants were subjected to illumination for 12 hours per day. After about 5 weeks the infested plants were counted and the total number of plants for each test were also counted. The active agents tested were used as pulverulent compositions.

[3] = tested on: Pythium ultimum; experiment: Threshold concentration test for use of the compounds against Pythium ultimum (infested soil, garden peas); type: in vivo; parameters: key to root evaluation (1-4): 4: white roots without fungous necrosis; 3: white roots, minor fungous necrosis; 2: brown roots, already more pronounced fungous necrosis; 1: heavy fungous necrosis, roots rotted; conditions: for root evaluation (1-4): 3 weeks; for number of sound peas: 20 grains per dish, 3 weeks at 20-24° C.
Procedure: Threshold concentration test for use of the compounds against Pythium ultimum
A 20% concentration of certain pulverulent active agents as listed below were mixed in uniform manner into a soil which had been heavily infested by Pythium ultimum. The thus treated soil was then placed into clay dishes of a capacity of 0.5 l earth. Without any intermediate time lapse 20 grain of garden peas (Pisum sativum L. convar. medullare Alef.) of the type "Wunder von Kelvedon" were then seeded into each of the clay dishes. After a cultivation period of three weeks at 20° to 24° C. in a hothouse the number of sound peas was determined and a root evaluation was carried out. The active agents amounts and results appear from the following table.
(§1) The root evaluation was carried out on a scale from 1 to 4 as follows: […]

[4] = tested on: Fusarium avenaceum; experiment: Threshold concentration test in case of Fusarium avenaceum (infested soil, garden peas); type: in vivo; conditions: for number of sound peas: 20 grains per dish, 18 days at 20-24° C.; for root evaluation (1-4): 18 days
Procedure: Threshold concentration test in case of Fusarium avenaceum
A 20% pulverulent active agent of the type further identified in the table below was mixed in uniform manner with a soil which had been heavily infested with Fusarium avenaceum. The thus treated soil was then placed into clay dishes of a capacity of 0.5 l of earth. Each dish was seeded without any intervening time with 20 grains of garden peas (Pisum sativum L. convar. medullare Alef.) of the type "Wunder von Kelvedon". After a cultivation time of 18 days at 20° to 24° C. in a hot house the number of sound peas was determined and a root evaluation was carried out. The active agents employed, the amounts and results appear from the following table.
as §1

SMILES | % activity ([1]; 50 g active agent per 100 kg) [%] | % activity ([2]; 50 g active agent per 100 kg) [%] | % activity ([1]; 20 g active agent per 100 kg) [%] | root evaluation (1-4) ([3]; 20 mg/l soil) | number of sound peas ([3]; 20 mg/l soil) | root evaluation (1-4) ([3]; 40 mg/l soil) | number of sound peas ([3]; 40 mg/l soil) | root evaluation (1-4) ([3]; 80 mg/l soil) | number of sound peas ([3]; 80 mg/l soil) | number of sound peas ([4]; 25 mg/l soil) | root evaluation (1-4) ([4]; 25 mg/l soil) | number of sound peas ([4]; 50 mg/l soil) | root evaluation (1-4) ([4]; 50 mg/l soil) | number of sound peas ([4]; 100 mg/l soil) | root evaluation (1-4) ([4]; 100 mg/l soil) | % activity ([1]; 10 g active agent per 100 kg) [%] | % activity ([2]; 20 g active agent per 100 kg) [%]
CC(C)[S+]([O-])c1nnc(C(N)=O)s1 (centres unmarked) [5-isopropylsulfinyl-1,3,4-thiadiazole-2-carboxamide] | 100 | 100 |  |  |  |  |  |  |  |  |  |  |  |  |  |  | 
C=CCNC(=O)c1nnc([S+]([O-])CCC)s1 (centres unmarked) [5-propylsulfinyl-1,3,4-thiadiazole-2-carboxylic acid-allylamide] | 100 | 96 | 100 | 2 | 15 | 4 | 19 | 4 | 19 |  |  |  |  |  |  |  | 
CCC[S+]([O-])c1nnc(C(=O)NC(C)C)s1 (centres unmarked) [5-propylsulfinyl-1,3,4-thiadiazole-2-carboxylic acid-isopropylamide] | 100 | 100 | 100 |  |  |  |  |  |  | 9 | 3 | 13 | 4 | 16 | 4 |  | 
S=C([S-])NCCNC(=S)[S-].[Mn+2] [Manganese ethylene-1,2-bis-dithiocarbamate, reference compound] |  |  |  | 1 | 1 | 1 | 4 | 1 | 11 | 0 | 1 | 0 | 1 | 12 | 1 |  | 
CCS(=O)(=O)c1nnc(C(=O)N2CCC2)s1 [5-ethylsulfonyl-1,3,4-thiadiazole-2-carboxylic acid-N,N-trimethyleneamide] |  |  |  | 4 | 20 | 4 | 19 | 4 | 20 |  |  |  |  |  |  |  | 
CCCC[S+]([O-])c1nnc(C#N)s1 (centres unmarked) [5-butylsulfinyl-1,3,4-thiadiazole-2-carbonitrile] | 100 |  |  | 4 | 18 | 4 | 18 | 4 | 20 | 19 | 4 | 19 | 4 | 19 | 4 |  | 
CCCCNC(=O)c1nnc(S(=O)(=O)CCC)s1 [5-propylsulfonyl-1,3,4-thiadiazole-2-carboxylic acid-butylamide] | 100 |  | 99.7 |  |  |  |  |  |  | 9 | 1 | 16 | 3 | 17 | 4 | 99.2 | 
CCCC[S+]([O-])c1nnc(C(=O)N(C)C)s1 (centres unmarked) [5-butylsulfinyl-1,3,4-thiadiazole-2-carboxylic acid-dimethylamide] |  | 100 |  |  |  |  |  |  |  |  |  |  |  |  |  |  | 
C[S+]([O-])c1nnc(C(=O)NCc2ccccc2Cl)s1 (centres unmarked) [5-methylsulfinyl-1,3,4-thiadiazole-2-carboxylic acid-(2-chlorobenzyleamide)] |  |  |  |  |  |  |  |  |  | 7 | 2 | 11 | 3 | 18 | 4 |  | 
COCCNC(=O)c1nnc(S(C)(=O)=O)s1 [5-methylsulfonyl-1,3,4-thiadiazole-2-carboxylic acid-(2-methoxyethyl)-amide] | 100 | 100 | 93 |  |  |  |  |  |  |  |  |  |  |  |  |  | 92
CCCS(=O)(=O)c1nnc(C(=O)NCCCCl)s1 [5-propylsulfonyl-1,3,4-thiadiazole-2-carboxylic acid-(3-chloropropyl)-amide] |  |  |  | 1 | 10 | 3 | 19 | 4 | 19 |  |  |  |  |  |  |  | 
C[S+]([O-])c1nnc(C#N)s1 (centres unmarked) [5-methylsulfinyl-1,3,4-thiadiazole-2-carbonitrile] | 100 | 94 | 100 | 4 | 19 | 4 | 20 | 4 | 20 | 20 | 4 | 18 | 4 | 19 | 4 |  | 
C[S+]([O-])c1nnc(C(N)=O)s1 (centres unmarked) [5-methylsulfinyl-1,3,4-thiadiazole-2-carboxamide] | 100 | 100 | 98 |  |  |  |  |  |  |  |  |  |  |  |  |  | 
CC(C)[S+]([O-])c1nnc(C#N)s1 (centres unmarked) [5-isopropylsulfinyl-1,3,4-thiadiazole-2-carbonitrile] | 100 | 93 | 87 | 3 | 17 | 4 | 17 | 4 | 19 | 18 | 4 | 19 | 4 | 18 | 4 |  | 
CCCCS(=O)(=O)c1nnc(C(=O)N2CCC2)s1 [5-butylsulfonyl-1,3,4-thiadiazole-2-carboxylic acid-N,N-trimethylenamide] | 100 |  |  |  |  |  |  |  |  | 5 | 1 | 13 | 2 | 18 | 3 |  | 
CC(C)[S+]([O-])c1nnc(C(=O)NCC2CCCCC2)s1 (centres unmarked) [5-isopropylsulfinyl-1,3,4-thiadiazole-2-carboxylic acid-cyclohexylmethylamide] | 100 |  | 99 |  |  |  |  |  |  |  |  |  |  |  |  |  | 
CCCS(=O)(=O)c1nnc(C(=O)NCC)s1 [5-propylsulfonyl-1,3,4-thiadiazole-2-carboxylic acid-ethylamide] | 100 |  | 99.8 | 3 | 14 | 4 | 14 | 4 | 14 |  |  |  |  |  |  | 99.3 | 
